According to the CheMixHub ionic liquid set:
± gives the uncertainty stated by the source.

Assay: xn = mol fraction of the nth substance listed
Conditions: for viscosity: 101 kPa, x2 = 0; for electrical conductivity: 100 kPa

c1ccsc1 + N#C[C-](C#N)C#N.OCCC[n+]1ccccc1
Conditions | viscosity [mPa·s]
293.15 K | 0.653 ± 0.065
298.15 K | 0.615 ± 0.062
303.15 K | 0.58 ± 0.058
308.15 K | 0.545 ± 0.055
313.15 K | 0.518 ± 0.052
318.15 K | 0.491 ± 0.049
323.15 K | 0.464 ± 0.047
328.15 K | 0.441 ± 0.044
333.15 K | 0.42 ± 0.042
338.15 K | 0.4 ± 0.04
343.15 K | 0.382 ± 0.038
348.15 K | 0.364 ± 0.037

c1ccsc1 + N#C[C-](C#N)C#N.OCC[n+]1ccccc1
Conditions | viscosity [mPa·s]
303.15 K | 0.58 ± 0.058
333.15 K | 0.42 ± 0.042
348.15 K | 0.364 ± 0.037

CCCCCCCC[n+]1ccccc1.[Br-] + NCC(=O)NCC(=O)O + O
electrical conductivity [S/m]
Conditions | 288.15 K | 293.15 K | 298.15 K | 303.15 K | 308.15 K
x2 = 0.0008948, x1 = 0.00597 | – | – | – | – | 2.18 ± 0.13
x2 = 0.0008948, x1 = 0.005972 | – | – | 1.72 ± 0.1 | 1.92 ± 0.12 | –
x2 = 0.0008948, x1 = 0.005974 | 1.34 ± 0.08 | 1.52 ± 0.091 | – | – | –
x2 = 0.000895, x1 = 0.005737 | – | – | – | – | 2.13 ± 0.13
x2 = 0.000895, x1 = 0.005739 | – | 1.48 ± 0.089 | 1.68 ± 0.1 | 1.88 ± 0.11 | –
x2 = 0.000895, x1 = 0.005741 | 1.31 ± 0.078 | – | – | – | –
x2 = 0.0008953, x1 = 0.005443 | – | – | 1.62 ± 0.098 | 1.82 ± 0.11 | 2.05 ± 0.12
x2 = 0.0008953, x1 = 0.005445 | 1.27 ± 0.076 | 1.44 ± 0.086 | – | – | –
x2 = 0.0008956, x1 = 0.005122 | – | – | 1.57 ± 0.094 | 1.76 ± 0.11 | 1.98 ± 0.12
x2 = 0.0008956, x1 = 0.005124 | 1.22 ± 0.073 | 1.39 ± 0.083 | – | – | –
x2 = 0.0008959, x1 = 0.004789 | – | 1.34 ± 0.08 | 1.51 ± 0.091 | 1.69 ± 0.1 | 1.88 ± 0.11
x2 = 0.0008959, x1 = 0.00479 | 1.18 ± 0.071 | – | – | – | –
x2 = 0.0008962, x1 = 0.004442 | 1.14 ± 0.068 | 1.29 ± 0.077 | 1.45 ± 0.087 | 1.62 ± 0.097 | 1.79 ± 0.11
x2 = 0.0008965, x1 = 0.004038 | – | – | – | – | 1.69 ± 0.1
x2 = 0.0008965, x1 = 0.004039 | 1.07 ± 0.064 | 1.21 ± 0.073 | 1.36 ± 0.082 | 1.52 ± 0.091 | –
x2 = 0.000897, x1 = 0.00359 | – | – | 1.26 ± 0.075 | 1.4 ± 0.084 | 1.55 ± 0.093
x2 = 0.000897, x1 = 0.003592 | 0.984 ± 0.059 | 1.12 ± 0.067 | – | – | –
x2 = 0.0008974, x1 = 0.003106 | 0.886 ± 0.053 | 1 ± 0.06 | 1.13 ± 0.068 | 1.26 ± 0.076 | 1.39 ± 0.084
x2 = 0.0008979, x1 = 0.002563 | 0.768 ± 0.046 | 0.87 ± 0.052 | 0.975 ± 0.059 | 1.09 ± 0.065 | 1.19 ± 0.071
x2 = 0.0008984, x1 = 0.002015 | 0.637 ± 0.038 | 0.721 ± 0.043 | 0.807 ± 0.049 | 0.898 ± 0.054 | 0.973 ± 0.059
x2 = 0.0008987, x1 = 0.001634 | 0.54 ± 0.032 | 0.61 ± 0.037 | 0.682 ± 0.041 | 0.758 ± 0.046 | 0.823 ± 0.05
x2 = 0.0008991, x1 = 0.001218 | 0.424 ± 0.025 | 0.477 ± 0.029 | 0.533 ± 0.032 | 0.592 ± 0.036 | 0.657 ± 0.04
x2 = 0.0008995, x1 = 0.0007371 | 0.298 ± 0.018 | 0.332 ± 0.02 | 0.369 ± 0.022 | 0.406 ± 0.025 | 0.467 ± 0.028
x2 = 0.001787, x1 = 0.006313 | – | – | – | – | 2.23 ± 0.13
x2 = 0.001787, x1 = 0.006315 | – | – | 1.76 ± 0.11 | 1.95 ± 0.12 | –
x2 = 0.001787, x1 = 0.006317 | 1.36 ± 0.082 | 1.53 ± 0.092 | – | – | –
x2 = 0.001788, x1 = 0.005888 | – | – | 1.69 ± 0.1 | 1.87 ± 0.11 | 2.13 ± 0.13
x2 = 0.001788, x1 = 0.00589 | 1.31 ± 0.078 | 1.47 ± 0.088 | – | – | –
x2 = 0.001789, x1 = 0.005263 | – | – | – | 1.76 ± 0.1 | 1.98 ± 0.12
x2 = 0.001789, x1 = 0.005265 | 1.23 ± 0.074 | 1.38 ± 0.083 | 1.57 ± 0.094 | – | –
x2 = 0.001789, x1 = 0.005589 | – | – | 1.63 ± 0.098 | 1.81 ± 0.11 | 2.05 ± 0.12
x2 = 0.001789, x1 = 0.005591 | 1.27 ± 0.076 | 1.43 ± 0.086 | – | – | –
x2 = 0.00179, x1 = 0.004922 | – | – | 1.51 ± 0.091 | 1.69 ± 0.1 | 1.88 ± 0.11
x2 = 0.00179, x1 = 0.004924 | 1.18 ± 0.071 | 1.33 ± 0.08 | – | – | –
x2 = 0.001791, x1 = 0.004115 | – | 1.2 ± 0.072 | 1.35 ± 0.081 | 1.51 ± 0.091 | 1.68 ± 0.1
x2 = 0.001791, x1 = 0.004116 | 1.06 ± 0.064 | – | – | – | –
x2 = 0.001791, x1 = 0.004536 | – | – | – | – | 1.78 ± 0.11
x2 = 0.001791, x1 = 0.004537 | 1.13 ± 0.068 | 1.27 ± 0.076 | 1.44 ± 0.087 | 1.61 ± 0.097 | –
x2 = 0.001792, x1 = 0.003673 | – | – | – | 1.4 ± 0.084 | 1.54 ± 0.093
x2 = 0.001792, x1 = 0.003675 | 0.984 ± 0.059 | 1.12 ± 0.067 | 1.26 ± 0.075 | – | –
x2 = 0.001793, x1 = 0.003161 | 0.886 ± 0.053 | 0.997 ± 0.06 | 1.12 ± 0.067 | 1.25 ± 0.075 | 1.38 ± 0.083
x2 = 0.001794, x1 = 0.002599 | 0.766 ± 0.046 | 0.862 ± 0.052 | 0.967 ± 0.058 | 1.08 ± 0.065 | 1.18 ± 0.071
x2 = 0.001795, x1 = 0.001992 | 0.62 ± 0.037 | 0.699 ± 0.042 | 0.783 ± 0.047 | 0.87 ± 0.052 | 0.87 ± 0.052
x2 = 0.001796, x1 = 0.001587 | 0.515 ± 0.031 | 0.581 ± 0.035 | 0.65 ± 0.039 | 0.724 ± 0.043 | 0.724 ± 0.043
x2 = 0.001797, x1 = 0.0007376 | 0.292 ± 0.018 | 0.326 ± 0.02 | 0.36 ± 0.022 | 0.389 ± 0.024 | 0.389 ± 0.024
x2 = 0.001797, x1 = 0.001185 | 0.405 ± 0.024 | 0.456 ± 0.028 | 0.51 ± 0.031 | 0.566 ± 0.034 | 0.566 ± 0.034
